Assays:
PKCθ = PKCθ (Homo sapiens, UniProt Q04759); experiment: Ki Pan Vera (PV) PKCθ; assay type: biochemical
Experimental: (§1) For Ki Pan Vera (PV) of PKCθ, entries identified with “A” had values below 100 nM; entries identified with “B” had values below 1 μM.

PKC delta = PKC delta (Homo sapiens, UniProt Q05655); experiment: Ki Pan Vera (PV) PKC delta; assay type: biochemical
PKC alpha = PKC alpha (Homo sapiens, UniProt P17252); experiment: Ki Pan Vera (PV) PKC alpha; assay type: biochemical
Experimental: [Worded in the source for another target; this target is reported under the same test.] as §1

[1] = tested on: anti-CD3 induced interleukin-2 (IL-2) production; experiment: anti-CD3 induced IL-2 production in mice; assay type: in vivo; settings: subcutaneous dose 30 mg/kg
Experimental: The compounds of the invention were also tested in vivo.

SGK1 = target: T1, SGK1 (Homo sapiens, UniProt O00141); experiment: IC50 for kinase SGK (selectivity); assay type: biochemical
T1 sequence (O00141 1-431): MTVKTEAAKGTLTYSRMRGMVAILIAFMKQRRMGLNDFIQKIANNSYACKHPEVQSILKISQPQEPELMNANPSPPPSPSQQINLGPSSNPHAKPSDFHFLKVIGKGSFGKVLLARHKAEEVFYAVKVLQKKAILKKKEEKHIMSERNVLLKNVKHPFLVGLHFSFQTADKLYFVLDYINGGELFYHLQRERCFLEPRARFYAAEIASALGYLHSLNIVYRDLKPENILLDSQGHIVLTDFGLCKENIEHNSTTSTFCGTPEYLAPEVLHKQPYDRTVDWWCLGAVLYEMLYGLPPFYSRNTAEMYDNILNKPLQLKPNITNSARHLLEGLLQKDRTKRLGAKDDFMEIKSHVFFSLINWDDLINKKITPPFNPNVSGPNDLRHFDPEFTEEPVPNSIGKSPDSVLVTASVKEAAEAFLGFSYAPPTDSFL
Experimental: Entries identified with “1” had values above 15 nM; entries identified with “2” had values above 100 nM; entries identified with “3” had values above 1 μM; entries identified with “4” had values above 10 μM. In Table 2, “nd” stands for “not determined.”

PKC delta, sequence (Q05655 whole entry): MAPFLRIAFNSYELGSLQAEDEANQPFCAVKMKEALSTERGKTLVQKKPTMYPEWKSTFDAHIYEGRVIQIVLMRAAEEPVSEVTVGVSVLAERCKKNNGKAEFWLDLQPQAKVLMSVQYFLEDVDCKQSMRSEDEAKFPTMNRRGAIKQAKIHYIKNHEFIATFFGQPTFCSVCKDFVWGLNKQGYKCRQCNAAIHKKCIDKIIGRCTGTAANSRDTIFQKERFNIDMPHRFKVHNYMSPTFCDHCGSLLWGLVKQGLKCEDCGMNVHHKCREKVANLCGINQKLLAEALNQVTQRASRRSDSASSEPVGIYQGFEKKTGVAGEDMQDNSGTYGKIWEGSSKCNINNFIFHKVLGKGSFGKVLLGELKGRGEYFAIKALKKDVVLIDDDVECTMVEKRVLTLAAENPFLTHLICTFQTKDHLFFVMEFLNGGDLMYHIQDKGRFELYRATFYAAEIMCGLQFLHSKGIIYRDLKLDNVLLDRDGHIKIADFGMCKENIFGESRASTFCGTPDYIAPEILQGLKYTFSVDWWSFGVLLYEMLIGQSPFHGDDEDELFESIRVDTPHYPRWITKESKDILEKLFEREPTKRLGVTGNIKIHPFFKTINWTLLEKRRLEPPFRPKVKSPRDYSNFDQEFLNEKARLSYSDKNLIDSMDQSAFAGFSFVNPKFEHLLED
PKCθ, sequence (Q04759 whole entry): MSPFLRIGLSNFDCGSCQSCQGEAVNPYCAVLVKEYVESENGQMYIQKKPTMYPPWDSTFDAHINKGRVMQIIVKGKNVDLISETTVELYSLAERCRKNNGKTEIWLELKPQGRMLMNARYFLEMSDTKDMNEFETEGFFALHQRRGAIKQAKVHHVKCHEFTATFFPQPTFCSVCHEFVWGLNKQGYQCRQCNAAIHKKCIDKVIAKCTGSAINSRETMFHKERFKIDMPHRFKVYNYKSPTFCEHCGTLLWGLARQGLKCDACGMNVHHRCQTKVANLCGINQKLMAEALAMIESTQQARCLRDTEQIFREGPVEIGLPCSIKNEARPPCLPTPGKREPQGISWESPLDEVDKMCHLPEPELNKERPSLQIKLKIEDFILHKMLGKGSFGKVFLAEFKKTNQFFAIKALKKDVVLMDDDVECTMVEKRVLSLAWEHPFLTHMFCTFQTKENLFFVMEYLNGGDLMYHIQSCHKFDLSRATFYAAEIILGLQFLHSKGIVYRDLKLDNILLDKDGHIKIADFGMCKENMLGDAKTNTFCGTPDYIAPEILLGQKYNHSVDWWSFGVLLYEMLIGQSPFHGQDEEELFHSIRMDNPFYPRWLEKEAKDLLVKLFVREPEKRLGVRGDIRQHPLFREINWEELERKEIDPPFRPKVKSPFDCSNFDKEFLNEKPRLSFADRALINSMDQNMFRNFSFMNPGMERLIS

Row | SMILES | Ki (PKCθ) [nM] | Ki (PKC delta) [nM] | Ki (PKC alpha) [nM] | % inhibition of IL-2 production [1] [%] | IC50-SGK1 (nM) (SGK1)
1 | NCCCNc1ncc2[nH]c(=O)n(Cc3cc(Cl)ccc3Cl)c2n1 [Compound 115] | < 100 | > 100 | > 1000 | 40 | –
2 | NCCCNc1ncc2[nH]c(=O)n(Cc3c(Cl)cccc3Cl)c2n1 [Compound 120, 9-(2,6-dichlorobenzyl)-2-(3-aminopropylamino)-7H-purin-8(9H)-one] | < 100 | > 100 | > 10000 | 40 | Inactive

— US7989459B2, “Purinones and 1H-imidazopyridinones as PKC-theta inhibitors” (Pharmacopeia, LLC, priority 2006, dated 2011)
